Our source for the IC50 and remaining activity values is article PMC11110727, “Exploiting thiol-functionalized benzosiloxaboroles for achieving diverse substitution patterns – synthesis, characterization and biological evaluation of promising antibacterial agents” (RSC Medicinal Chemistry, 2024).

pIC50: −log10 of the molar value. Some results are limits rather than exact numbers.

The target in the assay is T1, S. aureus MRSA LeuRS (Staphylococcus aureus, UniProt P67513).
T1 construct: The LeuRS gene from MRSA (PW-71) was amplified by PCR; made in house; host or cells: E. coli BL21(DE3)pLys
In words: In vitro aminoacylation (enzyme inhibition) assay. The assay is classed as biochemical. How it is done: We have undertaken research devoted to determining the most probable mechanism of antibacterial action. […] Considering structural similarity to benzoxaboroles we assumed that benzosiloxaboroles are active through this mechanism. Our working hypothesis was supported by the fact that benzosiloxaboroles are rather bacteriostatic than bactericidal,[26,27] which is consistent with the specificity of the OBORT mechanism. The enzyme inhibition assay was performed for compound 20 as it features high activity against S. aureus MRSA strains and the respective favorable SI = 19.5 (Table 5). […] We obtained S. aureus MRSA LeuRS in the E. coli expression system. From 400 mL culture, approximately 20 mg of 6× His tagged LeuRS (with a molecular mass of 92.3 kDa) was purified to more than 90% homogeneity, which was confirmed by sodium dodecylsulfate-polyacrylamide gel electrophoresis (SDS-PAGE; Fig. S2, ESI ^†). Next, we used an in vitro aminoacylation assay to investigate the ability of 20 to inhibit S. aureus MRSA LeuRS activity consistent with affecting the transfer of the ^14C-radiolabeled leucine to a total tRNA. […] (residual activity 30.8% at 25 μM).
The LeuRS gene from MRSA (PW-71) was amplified by PCR using the following primers: 5′-[…]-3′ and 5′-[…]-3′. The amplified leuRS was digested with BamHI and NotI and ligated into pETDuet-1 vector (Novagen) which carries an N-terminal His tag. After sequencing, the pETDuet1-leuRS plasmid was transformed into E. coli BL21(DE3)pLys cells, which were then grown overnight in 20 mL of Luria–Bertani (LB) medium containing 100 μg mL^−1 ampicillin and 30 μg mL^−1 chloramphenicol. Then the overnight culture was inoculated into 400 mL of Super Broth medium containing ampicillin and chloramphenicol at the same concentration, and the cells were grown until the OD600 reached 0.6. […] The protein concentration in the final solution was 2.86 mg mL^−1 (determined by the Bradford method and bovine serum albumin as a standard).[78] […]

T1 sequence (P67513 whole entry): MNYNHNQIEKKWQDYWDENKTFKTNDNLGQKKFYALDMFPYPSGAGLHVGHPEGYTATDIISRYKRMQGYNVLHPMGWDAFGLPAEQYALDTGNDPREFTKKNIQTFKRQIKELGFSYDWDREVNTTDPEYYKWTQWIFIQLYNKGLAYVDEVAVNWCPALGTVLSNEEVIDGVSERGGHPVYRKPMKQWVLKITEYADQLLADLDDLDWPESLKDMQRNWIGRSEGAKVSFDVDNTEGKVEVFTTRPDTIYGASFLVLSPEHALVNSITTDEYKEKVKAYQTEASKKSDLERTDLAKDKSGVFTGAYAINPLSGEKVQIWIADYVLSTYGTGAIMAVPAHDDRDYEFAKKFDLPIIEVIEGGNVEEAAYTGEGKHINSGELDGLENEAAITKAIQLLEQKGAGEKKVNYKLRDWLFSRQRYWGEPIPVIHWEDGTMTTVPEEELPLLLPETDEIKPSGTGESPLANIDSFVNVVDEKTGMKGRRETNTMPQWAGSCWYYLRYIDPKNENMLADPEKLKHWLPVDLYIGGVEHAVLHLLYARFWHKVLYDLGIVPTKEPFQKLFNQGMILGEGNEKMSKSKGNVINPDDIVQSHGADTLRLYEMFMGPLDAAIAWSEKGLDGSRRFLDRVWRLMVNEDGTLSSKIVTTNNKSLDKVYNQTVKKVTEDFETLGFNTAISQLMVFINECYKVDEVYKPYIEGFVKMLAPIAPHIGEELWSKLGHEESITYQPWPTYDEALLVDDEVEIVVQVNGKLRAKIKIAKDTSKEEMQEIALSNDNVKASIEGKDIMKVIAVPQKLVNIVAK

In turn, `C[Si]1(C)OB(O)c2cc(F)c(SCCS(=O)(=O)c3ccccc3)c(F)c21` [Compound 20, 5,7-Difluoro-1,1-dimethyl-6-((2-(phenylsulfonyl)ethyl)thio)benzo[c][1,2,5]oxasilaborol-3(1H)-ol] showed a pIC50 of under 3.70. Also, under “read-out: residual activity of S. aureus MRSA LeuRS”, the remaining activity at 25 µM came out at 92.9%.
